Laboratory results: publication PMC6155021, “Ancient and modern anticonvulsants act synergistically in a KCNQ potassium channel binding pocket” (Nature Communications, 2018)

Experiments:
KCNQ2/3 channels [1] = biological target: T1, KCNQ2/3 channels (Homo sapiens, UniProt O43525+O43526); assay: Two-electrode voltage-clamp of KCNQ2/3 channels expressed in Xenopus laevis oocytes; type: cell-based; details: for Non-normalized tail current V0.5 / Normalized tail current V0.5 / Slope: KCNQ2/3; for effect on voltage dependence of KCNQ2/3 activation (initial screen): tail currents at −30 mV
Source text: (§1) cRNA transcripts encoding human KCNA1, KCNQ1, KCNQ2, KCNQ3, KCNQ4, or KCNQ5 were generated by in vitro transcription using the T7 polymerase message machine kit (Thermo Fisher Scientific), after vector linearization, from cDNA sub-cloned into plasmids incorporating X. laevis β-globin 5′ and 3′ UTRs flanking the coding region to enhance translation and cRNA stability. cRNA was quantified by spectrophotometry. Mutant cDNAs were generated by site-directed mutagenesis using a QuikChange kit according to manufacturer’s protocol (Stratagene, San Diego, CA) and corresponding cRNAs prepared as above. Defolliculated stage V and VI X. laevis oocytes (Ecocyte Bioscience, Austin, TX) were injected with Kv channel α subunit cRNAs (10 ng total per oocyte). Oocytes were incubated at 16 °C in Barth’s saline solution (Ecocyte) containing penicillin and streptomycin, with daily washing, for 3–5 days prior to two-electrode voltage-clamp (TEVC) recording.
(§2) Oocytes were placed in a small-volume oocyte bath (Warner) and viewed with a dissection microscope. Chemicals were sourced from Sigma. Bath solution was (in mM): 96 NaCl, 4 KCl, 1 MgCl2, 1 CaCl2, 10 HEPES (pH 7.6). […] MTX (DMSO), sorbic acid (ethanol), and glutaconic acid (molecular grade H2O) were stored at −20 °C as 1 M stocks. Oleamide was stored as a 1 mM stock in ethanol at 4 °C. Palmitic acid was conjugated with bovine serum albumin as a 1 mM stock and stored at −20 °C. All compounds were diluted to working concentrations each experimental day. All compounds were introduced to the recording bath via gravity perfusion at a constant flow of 1 ml/min for 3 min prior to recording. Pipettes were of 1–2 MΩ resistance when filled with 3 M KCl. Currents were recorded in response to pulses between −80 and +40 mV at 20 mV intervals, or a single pulse to +40 mV, from a holding potential of −80 mV, to yield current–voltage relationships, current magnitude, and for quantifying activation rate. TEVC data analysis was performed with Clampfit10.2 (Molecular Devices) and Graphpad Prism software (GraphPad, San Diego, CA, USA); values are stated as mean ± SEM. Normalized tail currents were plotted versus prepulse voltage and fitted with a single Boltzmann function:1 g=A1-A2/1+expV12-Vy+A2, where g is the normalized tail conductance, A1 is the initial value at −∞, A2 is the final value at +∞, V1/2 is the half-maximal voltage of activation, and Vs the slope factor. Activation and deactivation kinetics were fitted with single-exponential functions.

[2] = biological target: KCNQ2-W236L/KCNQ3-W265L channels (Homo sapiens, UniProt O43525+O43526, W236L/W265L); assay: Two-electrode voltage-clamp of W236L-Q2/W265L-Q3 mutant channels in Xenopus oocytes; type: cell-based; details: 100 µM
Source text: as §1, §2

[3] = test system: pentylene tetrazole-induced seizures; assay: PTZ chemoconvulsant assay; type: in vivo, mouse; details: mice
Source text: We compared anticonvulsant activities of test compounds in male C57BL/6 mice (Charles River) aged 2–3 months. Mice were housed and used according to the recommendations in the Guide for the Care and Use of Laboratory Animals of the National Institutes of Health (NIH Publication, 8th edition, 2011). The study protocol was approved by the Institutional Animal Care and Use Committee of University of California, Irvine, which confirmed that all relevant ethical regulations were adhered to. Chemicals were sourced from Sigma (St. Louis, MO, USA) . A pentylene tetrazole (PTZ) chemoconvulsant assay was used[54]. […] Following the PTZ injection, mice were caged individually and an observer (GWA) blinded to the drug used recorded, over 20 min, clonic and tonic seizure incidence, and seizure-related mortality.
All values are expressed as mean ± SEM. Chi-squared analysis was used to compare seizure-related mortality in mice. One-way ANOVA was applied for all other tests; if multiple comparisons were performed, a post-hoc Tukey’s HSD test was performed following ANOVA. All p-values were two-sided. Statistical significance was defined as p < 0.05.

KCNA1 = KCNA1 (Homo sapiens, UniProt Q09470); assay: Two-electrode voltage-clamp of KCNA1 in Xenopus oocytes; type: cell-based
KCNA1, sequence (Q09470 whole entry): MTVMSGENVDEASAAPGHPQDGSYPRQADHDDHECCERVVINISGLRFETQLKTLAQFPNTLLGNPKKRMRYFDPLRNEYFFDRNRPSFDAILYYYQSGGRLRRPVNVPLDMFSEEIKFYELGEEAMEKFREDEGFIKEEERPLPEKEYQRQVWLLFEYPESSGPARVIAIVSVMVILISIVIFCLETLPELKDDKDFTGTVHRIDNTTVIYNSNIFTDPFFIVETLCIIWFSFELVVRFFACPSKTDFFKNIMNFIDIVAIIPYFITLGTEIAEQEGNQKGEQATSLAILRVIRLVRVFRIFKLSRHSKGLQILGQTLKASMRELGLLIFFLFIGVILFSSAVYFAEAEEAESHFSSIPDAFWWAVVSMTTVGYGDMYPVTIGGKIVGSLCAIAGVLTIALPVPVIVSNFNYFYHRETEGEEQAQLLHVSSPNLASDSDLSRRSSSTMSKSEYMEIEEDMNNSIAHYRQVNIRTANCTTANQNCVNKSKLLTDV
Source text: as §1
as §2, with “TEVC data analysis was performed with Clampfit10.2 (Molecular Devices) and Graphpad Prism software (GraphPad, San Diego, CA, USA); values are stated as mean ± SEM. Normalized tail currents were plotted versus prepulse voltage and fitted with a single Boltzmann function:1 g=A1-A2/1+expV12-Vy+A2, where g is the normalized tail conductance, A1 is the initial value at −∞, A2 is the final value at +∞, V1/2 is the half-maximal voltage of activation, and Vs the slope factor. Activation and deactivation kinetics were fitted with single-exponential functions.” left out

KCNQ2/3 channels [4] = biological target: T1, KCNQ2/3 channels; details: previously found, cited from earlier work
[5] = cited from earlier work

Row | SMILES | Non-normalized tail current V0.5 (KCNQ2/3 channels [1]; 100 µM) [mV] | Normalized tail current V0.5 (KCNQ2/3 channels [1]; 100 µM) [mV] | Slope (KCNQ2/3 channels [1]; 100 µM) [mV] | Non-normalized tail current V0.5 (KCNQ2/3 channels [1]; 0.1 µM) [mV] | Normalized tail current V0.5 (KCNQ2/3 channels [1]; 0.1 µM) [mV] | Slope (KCNQ2/3 channels [1]; 0.1 µM) [mV] | Non-normalized tail current V0.5 (KCNQ2/3 channels [1]; 1 µM) [mV] | Normalized tail current V0.5 (KCNQ2/3 channels [1]; 1 µM) [mV] | Slope (KCNQ2/3 channels [1]; 1 µM) [mV] | Non-normalized tail current V0.5 (KCNQ2/3 channels [1]; 10 µM) [mV] | Normalized tail current V0.5 (KCNQ2/3 channels [1]; 10 µM) [mV] | Slope (KCNQ2/3 channels [1]; 10 µM) [mV] | other results
1 | CCC1=C(O)C(=O)CC1 [3-ethyl-2-hydroxy-2-cyclopenten-1-one] | -40.1 ± 1.9 | -41.0 ± 0.9 | 5.1 ± 0.9 |  |  |  |  |  |  |  |  |  | 
2 | CCCCCCCCCCCCCCCC(=O)O [Palmitic Acid, palmitic acid] |  |  |  | -43.6 ± 5.0 | -44.3 ± 1.7 | 7.9 ± 1.7 | -45.6 ± 5.5 | -46.6 ± 1.7 | 7.4 ± 1.7 | -43.1 ± 4.9 | -44.9 ± 0.9 | 6.8 ± 0.9 | effect on voltage dependence of KCNQ2/3 activation (initial screen) (KCNQ2/3 channels [1]; 30 µM): negative-shifted; Non-normalized tail current V0.5 (KCNQ2/3 channels [1]; 3 µM): -45.1 ± 5.4 mV; Normalized tail current V0.5 (KCNQ2/3 channels [1]; 3 µM): -46.5 ± 1.1 mV; Slope (KCNQ2/3 channels [1]; 3 µM): 7.1 ± 1.1 mV; Non-normalized tail current V0.5 (KCNQ2/3 channels [1]; 30 µM): -43.5 ± 4.9 mV; Normalized tail current V0.5 (KCNQ2/3 channels [1]; 30 µM): -44.3 ± 1.4 mV; Slope (KCNQ2/3 channels [1]; 30 µM): 7.0 ± 1.1 mV
3 | CCCCCCCC/C=C\CCCCCCCC(N)=O [Oleamide, oleamide] | -41.9 ± 3.5 | -41.5 ± 0.8 | 6.6 ± 0.8 | -41.9 ± 4.8 | -41.8 ± 0.6 | 6.5 ± 0.9 | -41.6 ± 4.3 | -41.5 ± 0.8 | 6.7 ± 1.1 | -39.4 ± 4.8 | -39.2 ± 0.8 | 7.0 ± 0.8 | Non-normalized tail current V0.5 (KCNQ2/3 channels [1]; 500 µM): -37.6 ± 2.1 mV; Normalized tail current V0.5 (KCNQ2/3 channels [1]; 500 µM): -37.9 ± 0.8 mV; Slope (KCNQ2/3 channels [1]; 500 µM): 6.7 ± 0.6 mV
4 | Oc1ccccc1S [2-Mercaptophenol, 2-mercaptophenol] | -34.5 ± 4.6 | -29.5 ± 2.5 | 5.0 ± 1.2 | -40.9 ± 3.2 | -43.4 ± 3.6 | 5.4 ± 1.2 | -43.2 ± 2.6 | -43.6 ± 0.8 | 6.4 ± 0.9 | -43.2 ± 2.8 | -43.7 ± 1.1 | 7.4 ± 1.1 | effect on voltage dependence of KCNQ2/3 activation (initial screen) (KCNQ2/3 channels [1]; 100 µM): positive-shifted; effect of 2-mercaptophenol on ability of MTX to activate KCNQ2/3 (KCNQ2/3 channels [1]; 2-mercaptophenol 100 µM with MTX 30 µM): did not alter; Non-normalized tail current V0.5 (KCNQ2/3 channels [1]; 0.01 µM): -37.2 ± 3.7 mV; Normalized tail current V0.5 (KCNQ2/3 channels [1]; 0.01 µM): -37.7 ± 1.5 mV; Slope (KCNQ2/3 channels [1]; 0.01 µM): 7.4 ± 1.6 mV; Non-normalized tail current V0.5 (KCNQ2/3 channels [1]; 300 µM): -22.5 ± 7.2 mV; Normalized tail current V0.5 (KCNQ2/3 channels [1]; 300 µM): -19.8 ± 1.4 mV; Slope (KCNQ2/3 channels [1]; 300 µM): 8.3 ± 0.9 mV; concentration at which KCNQ2/3 inhibition begins (KCNQ2/3 channels [1]; activating at lower concentrations): ~ 100 µM; sensitivity of KCNQ2-W236L/KCNQ3-W265L channels [2]: insensitive; Non-normalized tail current V0.5 ([2]; W236L-Q2/W265L-Q3): -53.8 ± 1.7 mV; Normalized tail current V0.5 ([2]; W236L-Q2/W265L-Q3): -51.0 ± 4.2 mV
5 | C/C=C/C=C/C(=O)O [Sorbic Acid, sorbic acid] | -39.9 ± 3.0 | -39.9 ± 0.9 | 4.2 ± 0.9 |  |  |  |  |  |  |  |  |  | 
6 | O=C(O)/C=C/CC(=O)O [Glutaconic Acid, glutaconic acid] | -40.8 ± 3.8 | -40.7 ± 1.2 | 5.4 ± 1.7 | -40.4 ± 1.5 | -41.2 ± 1.4 | 4.4 ± 3.7 | -41.5 ± 1.3 | -42.7 ± 1.7 | 4.8 ± 2.4 | -42.1 ± 3.8 | -42.9 ± 2.2 | 5.4 ± 2.3 | effect on voltage dependence of KCNQ2/3 activation (initial screen) (KCNQ2/3 channels [1]; 100 µM): negative-shifted; Non-normalized tail current V0.5 (KCNQ2/3 channels [1]; 500 µM): -38.5 ± 5.4 mV; Normalized tail current V0.5 (KCNQ2/3 channels [1]; 500 µM): -37.7 ± 0.9 mV; Slope (KCNQ2/3 channels [1]; 500 µM): 6.8 ± 0.9 mV
7 | CC(C)CC(=O)O [IVA, isovaleric acid] |  |  |  |  |  |  |  |  |  |  |  |  | clonic seizure incidence ([3]; 10 mg/kg i.p. alone): neither compound reduced clonic seizures alone; clonic seizure incidence ([3]; 20 mg/kg i.p., 30 min before 80 mg kg−1 PTZ): no effect; suppression of PTZ-induced tonic seizures ([3]; individually): ineffective; Slope (KCNA1; KCNA1 (table title), 500 µM): 6.9 ± 1.1 mV; effect on KCNA1 currents (KCNA1; MTX concentration not given, IVA 500 µM): did not alter currents
8 | CCCCC(=O)O [valeric acid] |  |  |  |  |  |  |  |  |  |  |  |  | ability to activate KCNQ2/3 channels (KCNQ2/3 channels [4]): inactive
9 | NCC(O)CC(=O)O (stereo not drawn) [GABOB, γ-amino-β-hydroxybutyric acid, reference compound] |  |  |  |  |  |  |  |  |  |  |  |  | EC50 (KCNQ2/3 channels [4]; high affinity partial agonist): 0.12 µM; effect of GABOB on IVA effects on KCNQ2/3 (KCNQ2/3 channels [1]; GABOB 100 µM with IVA 500 µM): highly effective at competing out effects of IVA; effect of GABOB on MTX effects on KCNQ2/3 (KCNQ2/3 channels [1]; GABOB 100 µM with MTX 30 µM): only partially diminishes
10 | C=CCCCCC [1-Heptene] | -41.9 ± 4.9 | -41.8 ± 0.9 | 5.8 ± 1.5 |  |  |  |  |  |  |  |  |  | 
11 | O=C1c2ccccc2C(Cc2ccncc2)(Cc2ccncc2)c2ccccc21 [XE991, reference compound] |  |  |  |  |  |  |  |  |  |  |  |  | effect on MTX-activated KCNQ2/3 current (KCNQ2/3 channels [1]; wash-in of MTX followed by XE991, −60 mV): rapidly inhibited
12 | CC(C)CC(N)=O [Isovaleramide, isovaleramide] |  |  |  |  |  |  |  |  |  |  |  |  | passage through biological membranes [5]: readily passes though biological membranes; mean Tmax ([5]; humans): 0.5 to 0.75 h; mean elimination half-life ([5]; humans): 2.5 h; well tolerated dose ([5]; humans): at least 2400 mg per day
